Test results: US20020002171A1, “Materials and methods for killing nematodes and nematode eggs” (priority 2000, published 2002)

The compounds below were run on Caenorhabditis elegans (assay: C. elegans L1 nematicidal dose response in 96-well plates, 5 day visual score (Example 2; same procedure for Example 7, Table 3)). Settings: 0.3 μM, C. elegans L1, scored day 5.
Type: in vivo
Design: key to 5 Day Visual Score V1 / 5 Day Visual Score V2 / 5 Day Visual Score V3 / 5 Day Visual Score V4 / 5 Day Visual Score V6 / 5 Day Visual Score V5 / Initial HTS Run Visual Score / Follow-up HTS Run Visual Score: Dead: only stiff L1s (no movement); Dead (L4): worms are dead, but at a later larval stage; majority of worms are L1 (based on size) worms move when plate is tapped; majority of worms are L2 (based on size); majority of worms are L3 (based on size); majority of worms are L4 (based on size); AD: majority of worms are adult; #AD: 5 adult worms or less; B!: sterile (0-25 progeny); B: low broodsize (25-100 progeny); ˜B: moderate broodsize (100-250 progeny); <: reduced broodsize (250-500 progeny); OK: no effect (˜1000+ progeny)
How it was run: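 Scoring was by eye at 100× on day 5, after incubation at 20° C, of 20 C. elegans L1s per well fed 1% E. coli HB101 in NGM. Compound columns V1–V6 spanned 70 μM to 0.3 μM in 3-fold steps, with 1.4% DMSO in the top well and as control.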

| Compound | 5 Day Visual Score V6 |
| --- | --- |
| O=C(NCCc1ccc(F)cc1)C1C(c2ccccc2Cl)=NOC1c1ccc(-c2ccccc2)cc1 (centres unmarked) [AKC 119] | < (reduced broodsize (250-500 progeny)) |

Same assay, conditions: 2.6 μM, C. elegans L1, scored day 5

| Compound | 5 Day Visual Score V4 |
| --- | --- |
| COc1ccc(C2=NOC(c3ccc(-c4ccccc4)cc3)C2C(=O)NCCc2ccccc2F)cc1 (centres unmarked) [AKC 121] | #AD/˜B |

Same assay, conditions: 23.3 μM, C. elegans L1, scored day 5

| Compound | 5 Day Visual Score V2 |
| --- | --- |
| CCC1CCCCN1c1cc(Oc2ccc3oc4ccccc4c3c2)ncn1 (centres unmarked) [AKC 340] | L1 |
| COc1ccc(C2=NOC(c3ccc(-c4ccccc4)cc3)C2C(=O)NCCc2ccccc2F)cc1 (centres unmarked) [AKC 121] | L1 |

Same assay, conditions: 70 μM, C. elegans L1, scored day 5

| Compound | 5 Day Visual Score V1 |
| --- | --- |
| CCC1CCCCN1c1cc(Oc2ccc3oc4ccccc4c3c2)ncn1 (centres unmarked) [AKC 340] | L1 |
| COc1ccc(C2=NOC(c3ccc(-c4ccccc4)cc3)C2C(=O)NCCc2ccccc2F)cc1 (centres unmarked) [AKC 121] | L1 |

Same assay, conditions: Follow-up HTS run

| Compound | Follow-up HTS Run % Run [%] | Follow-up HTS Run Visual Score | Follow-up HTS Run mOD [mOD] |
| --- | --- | --- | --- |
| CCCCC(CC)CN(CC(CC)CCCC)c1nc(N2CCN(c3c(C)cccc3C)CC2)ns1 (centres unmarked) [compound 230] | 63 | 3AD/B | 101 |
| C=CCN(CC=C)c1nc(NCCC(c2ccccc2)c2ccccc2)ns1 [compound 289] | 86 | – | 139 |
| OC1CCN(c2nc(NCc3ccccc3)ns2)CC1 [compound 262] | 106 | – | 171 |
| COCCN(CCOC)c1nc(N2CCN(c3c(C)cccc3C)CC2)ns1 [compound 221] | 84 | 5AD/B | 136 |
| CCCCNc1nsc(N2CCN(c3cccc(C(F)(F)F)c3)CC2)n1 [compound 224] | 122 | L1 | 196 |
| OCC1CCCN1c1nc(NCc2ccc(C(F)(F)F)cc2)ns1 (centres unmarked) [compound 316] | 106 | L2 | 171 |

Same assay, conditions: Initial HTS run

| Compound | Initial HTS Run % Run [%] | Initial HTS Run Visual Score | Initial HTS Run mOD [mOD] |
| --- | --- | --- | --- |
| CCCCC(CC)CN(CC(CC)CCCC)c1nc(N2CCN(c3c(C)cccc3C)CC2)ns1 (centres unmarked) [compound 230] | 121 | Dead/1AD/B! | 133 |
| C=CCN(CC=C)c1nc(NCCC(c2ccccc2)c2ccccc2)ns1 [compound 289] | 104 | L4/AD/B | 114 |
| OC1CCN(c2nc(NCc3ccccc3)ns2)CC1 [compound 262] | 110 | L3/L4/AD/B! | 121 |
| COCCN(CCOC)c1nc(N2CCN(c3c(C)cccc3C)CC2)ns1 [compound 221] | 97 | L4/AD/B | 107 |
| CCCCNc1nsc(N2CCN(c3cccc(C(F)(F)F)c3)CC2)n1 [compound 224] | 143 | – | 157 |
| OCC1CCCN1c1nc(NCc2ccc(C(F)(F)F)cc2)ns1 (centres unmarked) [compound 316] | 100 | Dead(L3) | 110 |

Same assay, conditions: dose response, dilution V1, 5 day

| Compound | 5 Day Visual Score V1 |
| --- | --- |
| OCC1CCCN1c1nc(NCc2ccc(C(F)(F)F)cc2)ns1 (centres unmarked) [compound 316] | Dead |

Same assay, conditions: dose response, dilution V1, day 5

| Compound | 5 Day Visual Score V1 |
| --- | --- |
| CCCCC(CC)CN(CC(CC)CCCC)c1nc(N2CCN(c3c(C)cccc3C)CC2)ns1 (centres unmarked) [compound 230] | Dead |
| OC1CCN(c2nc(NCc3ccccc3)ns2)CC1 [compound 262] | L4/#AD/B! |
| COCCN(CCOC)c1nc(N2CCN(c3c(C)cccc3C)CC2)ns1 [compound 221] | #AD/˜B |
| CCCCNc1nsc(N2CCN(c3cccc(C(F)(F)F)c3)CC2)n1 [compound 224] | Dead |

Same assay, conditions: dose response, dilution V2, 5 day

| Compound | 5 Day Visual Score V2 |
| --- | --- |
| OCC1CCCN1c1nc(NCc2ccc(C(F)(F)F)cc2)ns1 (centres unmarked) [compound 316] | Dead(L3) |

Same assay, conditions: dose response, dilution V2, day 5

| Compound | 5 Day Visual Score V2 |
| --- | --- |
| C=CCN(CC=C)c1nc(NCCC(c2ccccc2)c2ccccc2)ns1 [compound 289] | ˜B (moderate broodsize (100-250 progeny)) |
| OC1CCN(c2nc(NCc3ccccc3)ns2)CC1 [compound 262] | < (reduced broodsize (250-500 progeny)) |
| CCCCNc1nsc(N2CCN(c3cccc(C(F)(F)F)c3)CC2)n1 [compound 224] | Dead |

Same assay, conditions: dose response, dilution V3, 5 day

| Compound | 5 Day Visual Score V3 |
| --- | --- |
| OCC1CCCN1c1nc(NCc2ccc(C(F)(F)F)cc2)ns1 (centres unmarked) [compound 316] | ˜B (moderate broodsize (100-250 progeny)) |

Same assay, conditions: dose response, dilution V3, day 5

| Compound | 5 Day Visual Score V3 |
| --- | --- |
| C=CCN(CC=C)c1nc(NCCC(c2ccccc2)c2ccccc2)ns1 [compound 289] | OK (no effect (˜1000+ progeny)) |
| OC1CCN(c2nc(NCc3ccccc3)ns2)CC1 [compound 262] | OK (no effect (˜1000+ progeny)) |
| COCCN(CCOC)c1nc(N2CCN(c3c(C)cccc3C)CC2)ns1 [compound 221] | OK (no effect (˜1000+ progeny)) |
| CCCCNc1nsc(N2CCN(c3cccc(C(F)(F)F)c3)CC2)n1 [compound 224] | < (reduced broodsize (250-500 progeny)) |

Same assay, conditions: dose response, dilution V4, 5 day

| Compound | 5 Day Visual Score V4 |
| --- | --- |
| OCC1CCCN1c1nc(NCc2ccc(C(F)(F)F)cc2)ns1 (centres unmarked) [compound 316] | < (reduced broodsize (250-500 progeny)) |

Same assay, conditions: dose response, dilution V4, day 5

| Compound | 5 Day Visual Score V4 |
| --- | --- |
| CCCCC(CC)CN(CC(CC)CCCC)c1nc(N2CCN(c3c(C)cccc3C)CC2)ns1 (centres unmarked) [compound 230] | < (reduced broodsize (250-500 progeny)) |
| C=CCN(CC=C)c1nc(NCCC(c2ccccc2)c2ccccc2)ns1 [compound 289] | OK (no effect (˜1000+ progeny)) |
| OC1CCN(c2nc(NCc3ccccc3)ns2)CC1 [compound 262] | OK (no effect (˜1000+ progeny)) |
| COCCN(CCOC)c1nc(N2CCN(c3c(C)cccc3C)CC2)ns1 [compound 221] | OK (no effect (˜1000+ progeny)) |
| CCCCNc1nsc(N2CCN(c3cccc(C(F)(F)F)c3)CC2)n1 [compound 224] | OK (no effect (˜1000+ progeny)) |

Same assay, conditions: dose response, dilution V5, 5 day

| Compound | 5 Day Visual Score V5 |
| --- | --- |
| OCC1CCCN1c1nc(NCc2ccc(C(F)(F)F)cc2)ns1 (centres unmarked) [compound 316] | OK (no effect (˜1000+ progeny)) |

Same assay, conditions: dose response, dilution V5, day 5

| Compound | 5 Day Visual Score V5 |
| --- | --- |
| CCCCC(CC)CN(CC(CC)CCCC)c1nc(N2CCN(c3c(C)cccc3C)CC2)ns1 (centres unmarked) [compound 230] | OK (no effect (˜1000+ progeny)) |
| C=CCN(CC=C)c1nc(NCCC(c2ccccc2)c2ccccc2)ns1 [compound 289] | OK (no effect (˜1000+ progeny)) |
| OC1CCN(c2nc(NCc3ccccc3)ns2)CC1 [compound 262] | OK (no effect (˜1000+ progeny)) |
| COCCN(CCOC)c1nc(N2CCN(c3c(C)cccc3C)CC2)ns1 [compound 221] | OK (no effect (˜1000+ progeny)) |
| CCCCNc1nsc(N2CCN(c3cccc(C(F)(F)F)c3)CC2)n1 [compound 224] | OK (no effect (˜1000+ progeny)) |

Same assay, conditions: dose response, dilution V6, 5 day

| Compound | 5 Day Visual Score V6 |
| --- | --- |
| OCC1CCCN1c1nc(NCc2ccc(C(F)(F)F)cc2)ns1 (centres unmarked) [compound 316] | OK (no effect (˜1000+ progeny)) |

Same assay, conditions: dose response, dilution V6, day 5

| Compound | 5 Day Visual Score V6 |
| --- | --- |
| CCCCC(CC)CN(CC(CC)CCCC)c1nc(N2CCN(c3c(C)cccc3C)CC2)ns1 (centres unmarked) [compound 230] | OK (no effect (˜1000+ progeny)) |
| C=CCN(CC=C)c1nc(NCCC(c2ccccc2)c2ccccc2)ns1 [compound 289] | OK (no effect (˜1000+ progeny)) |
| OC1CCN(c2nc(NCc3ccccc3)ns2)CC1 [compound 262] | OK (no effect (˜1000+ progeny)) |
| COCCN(CCOC)c1nc(N2CCN(c3c(C)cccc3C)CC2)ns1 [compound 221] | OK (no effect (˜1000+ progeny)) |
| CCCCNc1nsc(N2CCN(c3cccc(C(F)(F)F)c3)CC2)n1 [compound 224] | OK (no effect (˜1000+ progeny)) |
